Source: patent publication US5627215A, “Unsaturate amino compounds for use as anticancer and antiprotozoic agent” (Ciba-Geigy Corporation, priority 1993, dated 1997)
pIC50: −log10 of the molar value. Structures can show the parent of a compound that is named as a salt. Where two headings read alike, the source gives them in different places.

How the values were obtained:
[1] = test system: mouse ascites L1210 leukaemia cells; experiment: Levels of putrescine, spermidine and spermine (polyamine pools) in mouse ascites L1210 leukemia cells (method of Porter et al., HPLC); type: cell-based; settings: 48 h incubation; for activity at 10 µM: test compound 10 μM; for activity at 5 µM: test compound 5 μM
Protocol: Mouse ascites L1210 leukaemia cells are cultured (at 37° C.) in RPMI-1640 medium (which contains, per litre, 100 mg of Ca(NO3)2,400 mg of KCl, 100 mg of MgSO4.7H2 O, 6000 mg of NaCl, 2000 mg of NaHCO3, 801 mg of Na2 HPO4, 242 mg of L-Arg.HCl, 50 mg of L-Ash, 20 mg of L-Asp, 50 mg of L-Cys, 300 mg of L-Gln, 20 mg of L-Glu, 10 mg of Gly, 18.2 mg of L-His.HCl.H2 O, 20 mg of L-hydroxyproline, 50 mg of L-Leu, 40 mg of L-Lys.HCl, 15 mg of L-Met, 15 mg of L-Phe, 20 mg of L-Pro, 30 mg of L-Ser, 20 mg of L-Thr, 5 mg of L-Trp, 20 mg of L-Tyr, 20 mg of L-Vat, 1 mg of […], 0.2 mg of biotin, 3 mg of choline chloride, 1 mg of folic acid, 35 mg of i-inositol, 1 mg of nicotinamide, 0.25 mg of pantothenoic acid calcium salt, 1 mg of pyridoxine.HCl, 0.2 mg of riboflavin, 1 mg of thiamine. HCl, 0.005 mg of vitamin B12, 2000 mg of glucose, 1 mg of glutathione, and 5 mg of phenol red), which also contains 2 % 4-(2-hydroxyethyl)-1-piperazineethanesulfonic acid/3-(N-morpholino)propanesulfonic acid, 1 mM aminoguanidine and 10% NuSerum (Collaborative Research Inc., Lexington, Mass.). The cells are cultured under a humid 5% carbon dioxide atmosphere at 37° C. either in glass culture tubes (2 ml) or in 25 or 75 cm^2 tissue culture bottles in a total volume of 15 or 50 ml, respectively. The cultures are treated with the compounds of formula I or with 0.1 mM spermidine (controls: without corresponding compounds) during the logarithmic growth phase (0.5 to 1×10^5 cells/ml). The number of cells is measured by electronic particle counting (Model ZF Coulter Counter, Coulter Electronics, Hialeah, Fla.) and confirmed from time to time by haemocytometer measurements. The viability of the cells is measured by trypan blue exclusion measurement (0.5% in unbuffered 0.9% sodium chloride solution ).
For polyamine determination, the cell samples are washed twice in cold PBS (="Phosphate Buffered Saline"--contains per litre 8000 mg of NaCl, 200 mg of KCl, 1150 mg of Na2 HPO4.2H2 O, 200 mg of KH2 PO4, 100 mg of MgCl2.H2 O, 200 mg of MgSO4.H2 O and CaCl2; pH 7.2), and an aliquot of 10^7 cells is removed for polyamine determination. The cells are formed into a pellet, and the PBS supernatant is removed carefully using a cotton wool swab. The pellet containing the cells is then maintained together with 0.5 ml of 0.6M perchloric acid for 30 minutes at 4° C. and is then centrifuged for 3 minutes at 12,000 g using a microcentrifuge. The supernatant is frozen at -20° C. until the HPLC analysis. For that purpose, the polyamines in a 50 μl sample of the perchloric acid extract are separated over an HPLC system using a glass "Microbore Column" having a diameter of 2.8 mm, which is packed to a height of 2 cm with TLC-4A-cationexchange resin (Durrum Chemical Corp., Palo Alto, Calif.). The column temperature is maintained at 65° C. by means of a water bath with circulating water. The column is eluted at a flow rate of 16 ml/h with an initial column pressure of 34.45 bar, which decreases as the ionic strength of the elution buffer increases. Buffer 1 (which contains 0.2M boric acid, 0.5M NaCl, 0.03% Brij 35 (polyoxyethylene monolauryl ether, the number of ethyleneoxy radicals is approximately 23; Pierce Chemical Co., Rockford, Ill.) and 0.0001% octanoic acid, pH adjusted to 6.0 with saturated KOH) is flushed through the column for 4 minutes. Buffer 2 (which contains 0.2M boric acid, 2.15M NaCl, 0.03% Brij 35 and 0.0001% octanoic acid, pH adjusted as above) is pumped through for 6 minutes. Buffer 3 (which contains 0.2M boric acid, 2.9M NaCl and 0.0001% octanoic acid (pH adjusted as above)) is likewise applied for 6 minutes. The column is re-equilibrated for 10 minutes with buffer 1, before the next sample is introduced. The column eluate is derivatised with 0.05% o-phthalaldehyde (Durrum Chemical Corp.) in 0.4M borate buffer (pH 10.4)/1 mM 2-mercaptoethanol/0.09% Brij 35. The flow rate for o-phthalaldehyde is 8 ml/h. […]

[2] = test system: human T24 bladder carcinoma cells; experiment: Inhibition of growth of human T24 bladder carcinoma cells (methylene blue staining, 5 days); type: cell-based; settings: 120 h, Eagle's minimal essential medium, 5 days incubation
Protocol: The carcinoma cells (1000-1500) are transferred to 96-well microlitre plates and are incubated overnight under the said conditions. The test compound is added in serial dilutions on day 1. The plates are incubated under the said conditions for 5 days. During that period, control cultures undergo at least 4 cell divisions. After incubation, the cells are fixed with 3.3% (weight/volume=w/v) aqueous glutaraldehyde solution, washed with water and stained with 0.05% (w/v) aqueous methylene blue solution. After washing, the dye is eluted with 3% (w/v) aqueous hydrochloric acid. The optical density (OD) per well, which is directly proportional to the number of cells, is then measured by means of a photometer (Titertek multiskan) at 665 nm. The IC50 values are calculated by means of a computer system using the formula [formula] The IC50 value is defined as the concentration of active ingredient at which the number of cells per well at the end of the incubation period is only 50% of the number of cells in the control cultures. Inhibition of growth of human T24 bladder carcinoma cells: Using the method for inhibition of growth of human T24 bladder carcinoma cells om Eagle's minimal essential medium (see above), the following test results are obtained (given as IC50 =concentration of the active ingredient at which the number of cells per well at the end of the incubation period is only 50% of the number of cells in the control cultures): […]

[3] = read-out: level of putrescine (PU), % of the respective control
[4] = read-out: level of spermidine (SPD), % of the respective control
[5] = read-out: level of spermine (SPM), % of the respective control

| SMILES | activity at 10 µM [1, 3] [%] | activity at 10 µM [1, 4] [%] | activity at 10 µM [1, 5] [%] | pIC50 [2] | activity at 5 µM [1, 3] [%] | activity at 5 µM [1, 4] [%] | activity at 5 µM [1, 5] [%] |
| --- | --- | --- | --- | --- | --- | --- | --- |
| CCCNCCCNC/C=C/CNCCCNCCC [Example 1, (E)-1,14Di-propyl-1,5,10,14-tetraazatetradec-7-ene tetrahydrochloride] | 9.4 | 12 | 67 | 6.19 | – | – | – |
| C=CCNCCCNC/C=C/CNCCCNCC=C [Example 2, (E)-1,14-Di-allyl-1,5,10,14-tetraazatetradec-7-ene tetrahydrochloride] | 16 | 3.1 | 36 | 6.22 | – | – | – |
| CCCCNCCCNC/C=C/CNCCCNCCCC [Example 3, (E)-1,14-Di-butyl-1,5,10,14-tetraazatetradec-7-ene tetrahydrochloride] | – | – | – | 5.09 | – | – | – |
| CCNCCCNC/C=C/CNCCCNCC [Example 5, (E)-1,14-Di-ethyl-1,5,10,14-tetraazatetradec-7-ene tetrahydrochloride] | – | – | – | – | 4.1 | 2.1 | 30 |
| C=CCNCCCNC/C=C/CNCCCNCC [Example 6, (E)-1-Ally-14-ethyl-1,5,10,14-tetraazatetradec-7-ene tetrahydrochloride] | 4.1 | 2.1 | 12 | 5.52 | – | – | – |
| CCCCNCCCNC/C=C/CNCCCNCC [Example 8, (E)-1-Butyl-14-ethyl-1,5,10,14-tetraazatetradec-7-ene tetrahydrochloride] | 4.8 | 0.2 | 4 | 6.26 | – | – | – |
| CCCNCCCNC/C=C/CNCCCNCC [Example 9, (E)-1-Ethyl-14-propyl-1,5,10,14-tetraazatetradec-7-ene tetrahydrochloride] | 6.9 | 2 | 19 | 5.96 | – | – | – |
| C=CCNCCCNC/C=C/CNCCCNCCC [Example 13, (E)-1-Allyl-14-propyl-1,5,10,14-tetraazatetradec-7-ene tetrahydrochloride] | 0 | 1.3 | 25 | 5.67 | – | – | – |
| C(=C\CNCCCNCC1CC1)/CNCCCNCC1CC1 [Example 16, (E)-1,14-Di-cyclopropylmethyl-1,5,10,14-tetraazatetradec-7-ene tetrahydrochloride] | 12 | 24 | 62 | 6.04 | – | – | – |
